Data on 2 compounds can be found in patent US7815912B2, “Method of controlled ovarian hyperstimulation and pharmaceutical kit for use in such method” (Ares Trading, S.A., priority 2002, dated 2010).

Non-standard residues stand in square brackets, D forms with d. Residues, ends and D or L forms follow the SMILES beside them. d(hArg(Et2)) = CCN=C(NCC)NCCCC[C@@H](N)C(=O)O; hArg(Et2) = CCN=C(NCC)NCCCC[C@H](N)C(=O)O; dPhe(4-Cl) = N[C@H](Cc1ccc(Cl)cc1)C(=O)O; d2Nal = N[C@H](Cc1ccc2ccccc2c1)C(=O)O; dCit = NC(=O)NCCC[C@@H](N)C(=O)O; d3Pal = N[C@H](Cc1cccnc1)C(=O)O

What all share (format): in vivo, human
In data set [1] the test system is premature endogenous LH-surge. The data set is described as follows: open-label controlled clinical trial: premature endogenous LH-surge prevention in COH. The note with it: daily subcutaneous 2.0 mg cetrorelix without recLH. The source says: (§1) Although this treatment is suitable for all types of IVF patients (e.g. within the age range 18 to 45 years, with or without displaying polycystic ovarian syndrome and with or without a regular cycle), the following selection criteria are set forth in the investigation: healthy female partners of infertile couples; age at the time of screening between 20 and 39 years; a regular menstrual cycle, and willing to give a written informed consent. However, no special precautions concerning body weight or body mass index are taken.
(§2) Prior to the first administration of recombinant FSH a blood sample is taken for hormone analysis (estradiol and LH) and a standard urinary hCG assay is performed to exclude pregnancy. Recombinant FSH treatment is started at day 2 or 3 of menses by a daily subcutaneous injection until the day of hCG administration. During the first 5 days of recombinant FSH treatment the daily dose is fixed to 150 IU. […]
(§3) A subcutaneous injection with urinary hCG (10,000 IU) is administered, when at least three follicles exceed a diameter of 17 mm as measured by ultrasound scan and subsequently oocyte retrieval is performed typically 30-36 hours later.

Data set [2] concerns women undergoing COH and subsequent IVF and ET. The data set is described as follows: safety and tolerability in the clinical trial of COH with subsequent IVF and ET. To be noted: daily subcutaneous 2.0 mg cetrorelix without recLH.
From the text: as §1, §2, §3

Another data set relates to IVF-patients. The data set is described as follows: implantation and pregnancy rates after IVF and embryo transfer following COH.
From the text: as §1
Prior to the first administration of recombinant FSH a blood sample is taken for hormone analysis (estradiol and LH) and a standard urinary hCG assay is performed to exclude pregnancy. Recombinant FSH treatment is started at day 2 or 3 of menses by a daily subcutaneous injection until the day of hCG administration. During the first 5 days of recombinant FSH treatment the daily dose is fixed to 150 IU. Starting at day 6, blood samples for hormone analysis are taken once every two days prior to drug administration and ultrasonographic monitoring of follicle growth is performed to adjust, if necessary, the daily injectable doses of recombinant FSH.
as §3
Oocytes are retrieved from the human females that have undergone COH as set forth in example 1. The oocytes are subsequently fertilized in vitro and two days later no more than two embryos are transferred to the uterus of the patient. […] Lower implantation and pregnancy rates are obtained in IVF-patients, in whom premature LH surges are prevented by a daily dose of 0.25 mg cetrorelix.

The test system of data set [3] is premature endogenous LH-surge. The data set is described as follows: Examples 1 and 2 repeated using ganirelix instead of cetrorelix. The note with it: 2.0 mg ganirelix instead of 2.0 mg cetrorelix.
From the text: as §1, §2
A subcutaneous injection with urinary hCG (10,000 IU) is administered, when at least three follicles exceed a diameter of 17 mm as measured by ultrasound scan and subsequently oocyte retrieval is performed typically 30-36 hours later. […]

The mark [4] stands for this setting: daily 2.0 mg cetrorelix without co-administered recLH.

For `CC(=O)N[C@H](Cc1ccc2ccccc2c1)C(=O)N[C@H](Cc1ccc(Cl)cc1)C(=O)N[C@H](Cc1cccnc1)C(=O)N[C@@H](CO)C(=O)N[C@@H](Cc1ccc(O)cc1)C(=O)N[C@H](CCCNC(N)=O)C(=O)N[C@@H](CC(C)C)C(=O)N[C@@H](CCCNC(=N)N)C(=O)N1CCC[C@H]1C(=O)N[C@H](C)C(N)=O` [cetrorelix] (Ac-[d2Nal][dPhe(4-Cl)][d3Pal]SY[dCit]LRP[dA]-NH2), the “efficacy in preventing a premature LH-rise” value in data set [1] (compared with 0.25 mg) was “more efficacious”. In addition, the “effectiveness in preventing a premature LH-rise in patients with bodyweight of more than 75 kg” value in data set [1] (IVF patients undergoing COH, bodyweight more than 75 kg) is recorded as “especially apparent”. Further, in data set [2], the adverse effects entry is “no apparent adverse effects” and the tolerability result is reported as “well-tolerated”. Further, in the data set with IVF-patients (daily 0.25 mg cetrorelix), the “implantation rates (rank among three treatment groups)” value is “Lower” and the “pregnancy rates (rank among three treatment groups)” value is given as “Lower”. Also, in the data set on IVF-patients (setting [4]), the “implantation rates (rank among three treatment groups)” value is on record as “lowest” and the “pregnancy rates (rank among three treatment groups)” value is on record as “lowest”.

For the compound `CCN=C(NCC)NCCCC[C@H](NC(=O)[C@H](CC(C)C)NC(=O)[C@@H](CCCCNC(=NCC)NCC)NC(=O)[C@H](Cc1ccc(O)cc1)NC(=O)[C@H](CO)NC(=O)[C@@H](Cc1cccnc1)NC(=O)[C@@H](Cc1ccc(Cl)cc1)NC(=O)[C@@H](Cc1ccc2ccccc2c1)NC(C)=O)C(=O)N1CCC[C@H]1C(=O)N[C@H](C)C(N)=O` [ganirelix] (Ac-[d2Nal][dPhe(4-Cl)][d3Pal]SY[d(hArg(Et2))]L[hArg(Et2)]P[dA]-NH2), the “results (LH-rise prevention, tolerability, implantation and pregnancy rates) compared with examples 1 and 2” value in data set [3] is listed as “very similar”.
